# Data published in PubChem BioAssay (NCI).
#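 Briefly, cells in 96-well plates were exposed to five compound concentrations for 48 h, and endpoints were estimated by linear interpolation. GI50 is the concentration that inhibits growth by half. TGI marks complete inhibition of growth.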
# Assays:
# Assay in all cases: NCI-60 cell line screen, 48 h
# SR leukemia = test system: SR leukemia
# PC-3 prostate = test system: PC-3 prostate
# SN12C renal = test system: SN12C renal
# M14 melanoma = test system: M14 melanoma
# SK-MEL-28 melanoma = test system: SK-MEL-28 melanoma
# SK-MEL-2 melanoma = test system: SK-MEL-2 melanoma
# SW-620 colon = test system: SW-620 colon
# SNB-19 CNS = test system: SNB-19 CNS
# HS 578T breast = test system: HS 578T breast
# OVCAR-4 ovarian = test system: OVCAR-4 ovarian
# K-562 leukemia = test system: K-562 leukemia
# HOP-62 NSCLC = test system: HOP-62 NSCLC
# IGROV1 ovarian = test system: IGROV1 ovarian
# COLO 205 colon = test system: COLO 205 colon
# UO-31 renal = test system: UO-31 renal
# NCI-H226 lung = test system: NCI-H226 lung
# ACHN renal = test system: ACHN renal
# SF-295 CNS = test system: SF-295 CNS
# MOLT-4 leukemia = test system: MOLT-4 leukemia
# KM12 colon = test system: KM12 colon
# SF-268 CNS = test system: SF-268 CNS
# MALME-3M melanoma = test system: MALME-3M melanoma
# UACC-257 melanoma = test system: UACC-257 melanoma
# RPMI-8226 leukemia = test system: RPMI-8226 leukemia
# HT29 colon = test system: HT29 colon
# SK-OV-3 ovarian = test system: SK-OV-3 ovarian
# NCI/ADR-RES ovarian = test system: NCI/ADR-RES ovarian
# HOP-92 NSCLC = test system: HOP-92 NSCLC
# MDA-MB-435 = test system: MDA-MB-435
structure (smiles),measurement,setting,value
COC(=O)[C@]1(C)CC[C@]2(C)CC[C@]3(C)C(=CC(=O)[C@@H]4[C@@]5(C)CCC(=O)NC(C)(C)[C@@H]5CC[C@]43C)[C@@H]2C1,GI50,SR leukemia,15.5 µM
same,TGI,SR leukemia,50.5 µM
same,GI50,PC-3 prostate,4.69 µM
same,TGI,PC-3 prostate,21.3 µM
same,GI50,SN12C renal,17.1 µM
same,TGI,SN12C renal,35.2 µM
same,GI50,M14 melanoma,19.3 µM
same,TGI,M14 melanoma,44.4 µM
same,GI50,SK-MEL-28 melanoma,18.5 µM
same,TGI,SK-MEL-28 melanoma,36.5 µM
same,GI50,SK-MEL-2 melanoma,21.6 µM
same,TGI,SK-MEL-2 melanoma,95.3 µM
same,GI50,SW-620 colon,27.3 µM
same,TGI,SW-620 colon,> 100 µM
same,GI50,SNB-19 CNS,29 µM
same,TGI,SNB-19 CNS,> 100 µM
same,GI50,HS 578T breast,32.7 µM
same,TGI,HS 578T breast,> 100 µM
same,GI50,OVCAR-4 ovarian,27.6 µM
same,TGI,OVCAR-4 ovarian,> 100 µM
same,GI50,K-562 leukemia,7.4 µM
same,TGI,K-562 leukemia,66.5 µM
same,GI50,HOP-62 NSCLC,29 µM
same,TGI,HOP-62 NSCLC,> 100 µM
same,GI50,IGROV1 ovarian,26.7 µM
same,TGI,IGROV1 ovarian,> 100 µM
same,GI50,COLO 205 colon,17.1 µM
same,TGI,COLO 205 colon,50.4 µM
same,GI50,UO-31 renal,16.9 µM
same,TGI,UO-31 renal,33.3 µM
same,GI50,NCI-H226 lung,14.9 µM
same,TGI,NCI-H226 lung,35.4 µM
same,GI50,ACHN renal,24 µM
same,TGI,ACHN renal,89.4 µM
same,GI50,SF-295 CNS,19.4 µM
same,TGI,SF-295 CNS,43.8 µM
same,GI50,MOLT-4 leukemia,10.5 µM
same,TGI,MOLT-4 leukemia,31.6 µM
same,GI50,KM12 colon,16.4 µM
same,TGI,KM12 colon,38 µM
same,GI50,SF-268 CNS,28.2 µM
same,TGI,SF-268 CNS,> 100 µM
same,GI50,MALME-3M melanoma,18.3 µM
same,TGI,MALME-3M melanoma,38 µM
same,GI50,UACC-257 melanoma,24.4 µM
same,TGI,UACC-257 melanoma,94.3 µM
same,GI50,RPMI-8226 leukemia,12 µM
same,TGI,RPMI-8226 leukemia,34.7 µM
same,GI50,HT29 colon,11.9 µM
same,TGI,HT29 colon,80.5 µM
same,GI50,SK-OV-3 ovarian,24 µM
same,TGI,SK-OV-3 ovarian,> 100 µM
same,GI50,NCI/ADR-RES ovarian,20.2 µM
same,TGI,NCI/ADR-RES ovarian,53.6 µM
same,GI50,HOP-92 NSCLC,10.7 µM
same,TGI,HOP-92 NSCLC,24.2 µM
same,GI50,MDA-MB-435,26.6 µM
same,TGI,MDA-MB-435,> 100 µM
